Consider 2 molecules from ChEMBL document CHEMBL1201862, “PubChem BioAssay data set” (2004).

Structures are written as SMILES.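 Five compound concentrations were applied to cells in 96-well plates for 48 hours; endpoints were derived by simple linear interpolation of the resulting dose-response curve. GI50 = concentration required for 50% inhibition of growth.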 Active and inactive are the calls of the source. Cut-off read from the data, not from the text of the source: active = GI50 up to about 1.1 µM and inactive = higher.

Some test systems named below: RXF 393; SNB-19; OVCAR-8; Hs-578T; NCI-H226; HOP-62; T47D; MDA-N; DU-145; TK-10; HCT-15; MCF7; NCI-H460; NCI/ADR-RES; EKVX; UACC-257; SNB-75; SF-295; LOX IMVI; CAKI-1.
What all share (test): NCI anticancer screen, dose series, 48 h

As to `CC(Nc1ccc(Cl)cc1)c1ccncc1` (stereo not given), the GI50 in the assay with RXF 393 is 41.8 µM (inactive); in the assay on SNB-19, > 100 µM (inactive); with OVCAR-8 it was > 100 µM (inactive); with Hs-578T it was > 100 µM (inactive); in the assay on NCI-H226 it was > 100 µM (inactive); in the assay on HOP-62 it was > 100 µM (inactive). Besides, the GI50 is 42.3 µM (inactive) with T47D; > 100 µM (inactive) with MDA-N; 74.6 µM (inactive) with DU-145; > 100 µM (inactive) in the assay on TK-10; greater than 100 µM with HCT-15; > 100 µM (inactive) in the assay on MCF7. The GI50 with NCI-H460 was 36.8 µM (inactive); in the assay on NCI/ADR-RES, 61.5 µM (inactive); in the assay with EKVX, 75.5 µM (inactive); in the assay with UACC-257 it was 55.7 µM (inactive); in the assay with SNB-75 it was > 100 µM (inactive); in the assay on SF-295, 72.6 µM (inactive). In addition, the GI50 with LOX IMVI and in the assay with CAKI-1 was > 100 µM (inactive) throughout.
With `Cc1cc2c(O)nc(N)nc2nc1C`, the GI50 in the assay on RXF 393, in the assay on SNB-19, with OVCAR-8, with Hs-578T, in the assay on NCI-H226 and in the assay with HOP-62 was > 100 µM (inactive) throughout. The GI50 with T47D was > 100 µM (inactive); in the assay on MDA-N, > 100 µM (inactive); in the assay with DU-145, > 100 µM (inactive); in the assay with TK-10, > 100 µM (inactive); in the assay with HCT-15 it was greater than 100 µM; with MCF7, > 100 µM (inactive). The GI50 in the assay on NCI-H460, in the assay with NCI/ADR-RES, in the assay on EKVX, in the assay with UACC-257, in the assay with SNB-75 and with SF-295 was > 100 µM (inactive) in each case. In addition, the GI50 in the assay on LOX IMVI and with CAKI-1 was > 100 µM (inactive) each time.
